According to ChEMBL document CHEMBL4261550, “Triazolopyrimidines identified as reversible myeloperoxidase inhibitors” (Medchemcomm, 2017):

What was measured:
[1] = target: T1, Cytochrome P450 2B6 (Homo sapiens, UniProt P20813); test: Inhibition of CYP2B6 (unknown origin); format: ADME
T1 sequence (P20813 whole entry): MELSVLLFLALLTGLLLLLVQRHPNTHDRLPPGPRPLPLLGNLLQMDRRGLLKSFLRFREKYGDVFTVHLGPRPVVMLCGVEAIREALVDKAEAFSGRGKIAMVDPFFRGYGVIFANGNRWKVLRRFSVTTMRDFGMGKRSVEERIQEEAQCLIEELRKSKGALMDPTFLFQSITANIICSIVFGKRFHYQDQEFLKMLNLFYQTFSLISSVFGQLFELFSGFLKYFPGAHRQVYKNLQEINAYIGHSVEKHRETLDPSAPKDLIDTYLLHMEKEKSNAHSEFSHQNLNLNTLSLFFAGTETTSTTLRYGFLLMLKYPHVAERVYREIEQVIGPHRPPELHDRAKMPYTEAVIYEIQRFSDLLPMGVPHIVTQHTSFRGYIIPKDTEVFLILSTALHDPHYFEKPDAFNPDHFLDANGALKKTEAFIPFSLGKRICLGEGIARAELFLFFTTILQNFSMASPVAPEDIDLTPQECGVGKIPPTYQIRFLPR

[2] = tested on: Mus musculus; test: In vivo inhibition of MPO in PMA-stimulated C57BL6 mouse neutrophil degranulation model assessed as reduction in HOCl production at 100 mg/kg, po pretreated for 20 mins followed by PMA stimulation and measured after 2 mins by luminol chemiluminescence assay relative to control; format: functional
[3] = Plasma concentration in PMA-stimulated C57BL6 mouse neutrophil degranulation model at 100 mg/kg, po after 20 mins; format: ADME, organism-based
[4] = target: Cytochrome P450 3A4 (Homo sapiens, UniProt P08684); test: Inhibition of CYP3A4 (unknown origin); format: ADME
[5] = Plasma concentration in PMA-stimulated C57BL6 mouse neutrophil degranulation model at 30 mg/kg, po after 20 mins; format: ADME, organism-based
[6] = Ratio of plasma concentration in PMA-stimulated C57BL6 mouse neutrophil degranulation model at 100 mg/kg, po after 20 mins to in vitro IC50 for MPO in PMA-stimulated human neutrophils; format: ADME, organism-based; settings: in vivo
[7] = Ratio of plasma concentration in PMA-stimulated C57BL6 mouse neutrophil degranulation model at 30 mg/kg, po after 20 mins to in vitro IC50 for MPO in PMA-stimulated human neutrophils; format: ADME, organism-based; settings: in vivo

Chain of Cytochrome P450 3A4 (P08684 whole entry): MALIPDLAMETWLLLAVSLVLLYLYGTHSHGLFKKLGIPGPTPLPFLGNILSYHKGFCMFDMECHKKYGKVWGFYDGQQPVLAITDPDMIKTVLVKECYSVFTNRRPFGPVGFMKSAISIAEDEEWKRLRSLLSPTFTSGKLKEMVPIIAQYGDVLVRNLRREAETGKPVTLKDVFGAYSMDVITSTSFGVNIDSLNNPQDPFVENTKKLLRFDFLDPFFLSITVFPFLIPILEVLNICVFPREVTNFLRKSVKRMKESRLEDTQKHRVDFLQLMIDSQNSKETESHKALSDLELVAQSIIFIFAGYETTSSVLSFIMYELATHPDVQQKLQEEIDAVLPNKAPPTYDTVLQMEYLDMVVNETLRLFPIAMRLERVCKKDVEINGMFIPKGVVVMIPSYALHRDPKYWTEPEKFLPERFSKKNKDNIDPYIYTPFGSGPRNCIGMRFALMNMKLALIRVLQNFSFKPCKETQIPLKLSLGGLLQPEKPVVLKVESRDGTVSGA

Row | IC50 [1] [µM] | concentration at 20 min [3] [µM] | IC50 [4] [µM] | concentration at 20 min [5] [µM] | Ratio [6] | Ratio [7] | SMILES | inhibition in vivo at 100 mg/kg [2] [%]
1 | < 0.1 | – | – | – | – | – | Nc1ccc(Oc2cc(Cl)c(Cl)cc2Cl)cn1 | –
2 | – | 460 | 14 | 180 | 92 | 36 | Nc1nc(OCc2ccccc2)c2[nH]nnc2n1 | 70
